Test results: patent publication US5219866A, “Octadecyl-[2-(N-methylpiperidino)-ethyl]-phosphate and a process for its preparation” (Asta Medica AG, priority 1991, dated 1993)
Values after ≈ are worked out from the molar mass of the structure shown.

Columns and labels:
[1] = tested on: human KB tumor cell line which is transplanted in nude mice; test: Growth inhibition index WHI in vivo, human KB tumour cell line transplanted into nude mice; set-up: species or system human (KB tumour); nude mice (host); conditions: for Growth inhibition index WHI in % in vivo/humane KB tumour cell line transplanted into nude: 14th day after treatment related to the value on the day of application, WHI >100% = tumors became smaller
Experimental: Growth inhibition index WHI in % in vivo/humane
Substance KB tumour cell line transplanted into nude
The growth inhibition index WHI is determined in the human KB tumor cell line which is transplanted in nude mice. The growth inhibition index is defined as follows: [formula] of the treated group or in the control group on the 14th day after treatment related to the value on the day of application. […] In other words, the higher the WHI, the stronger the antitumor efficacy of a test substance.
(§1) The compounds of the invention display a good antineoplastic effect in the KB tumor (human carcinoma of the buccal cavity, transplanted subcutaneously to nude mice) and in autochthonous, chemically-induced DMBA-breast gland cancer in the rat.

[2] = tested on: Human KB tumour cell line; test: EC90, growth inhibition of human KB tumour cell line in vitro; format: cell-based; conditions: concentration which inhibits growth of cancer cells in vitro by 90%, read-out: ECqo in μg/ml Human KB tumour cell line in vitro
Experimental: Human KB tumour cell line in
The EC90 is determined in vitro in the same cell line. The EC90 is the concentration of substance having an antitumor effect in μg/ml which inhibits the growth of cancer cells in vitro by 90% in comparison to a control experiment without addition of the antitumor-acting substance.

DMBA-breast gland cancer = test: autochthonous, chemically-induced DMBA-breast gland cancer in the rat; format: in vivo; conditions: oral, 21.5 mg/kg body weight daily, 14-day treatment
Source text: as §1

[3] = tested on: blood platelet aggregation; test: inhibition of blood platelet aggregation; format: cell-based
phospholipase-A2 = phospholipase-A2 inhibition; format: biochemical
lipoxygenase = lipoxygenase inhibition; format: biochemical

Row | IC90 [2] [µg/mL] | Compound | Growth inhibition index WHI in % in vivo/humane KB tumour cell line transplanted into nude [1] [%] | regression of the KB tumors ([1]; 2×316 mg/kg body weight, given at intervals of one week) | regression of DMBA tumors weighing 5 g (DMBA-breast gland cancer) | inhibition of blood platelet aggregation [3] | phospholipase-A2-inhibiting effect (phospholipase-A2) | lipoxygenase-inhibiting effect (lipoxygenase)
1 | 1 (≈ 2.04 µM) | CCCCCCCCCCCCCCCCCCOP(=O)([O-])OCC[N+]1(C)CCCCCC1 [D20918] | 0 | – | – | – | – | –
2 | 0.31 (≈ 0.712 µM) | CCCCCCCCCCCCCCCCCCOP(=O)([O-])OCC[N+](C)(C)C [D 19391] | 11 | – | – | – | – | –
3 | > 1 | CCCCCCCCCCCCCCCCCCOP(=O)([O-])OCC[n+]1ccccc1 [D 19862] | 0 | – | – | – | – | –
4 | > 10 | CCCCCCCCCCCCCCCCCCOP(=O)([O-])OCC[N+]1(C)CCOCC1 [D 20680] | 0 | – | – | – | – | –
5 | 1 (≈ 2.04 µM) | CCCCCCCCCCCCCCCCCCOP(=O)([O-])OCC[N+]1(CC)CCCCC1 [D 20931] | 13 | – | – | – | – | –

Row | Compound | IC90 [2] [µg/mL] | Growth inhibition index WHI in % in vivo/humane KB tumour cell line transplanted into nude [1] [%] | regression of the KB tumors ([1]; 2×316 mg/kg body weight, given at intervals of one week) | regression of DMBA tumors weighing 5 g (DMBA-breast gland cancer) | inhibition of blood platelet aggregation [3] | phospholipase-A2-inhibiting effect (phospholipase-A2) | lipoxygenase-inhibiting effect (lipoxygenase)
6 | CCCCCCCCCCCCCCCCCCOP(=O)([O-])OCC[N+]1(C)CCCCC1 [D 20133, Octadecyl-[2-(N-methylpiperidino)-ethyl]-phosphate] | 0.3 (≈ 0.631 µM) | 121 | achieved a regression of the KB tumors | regressed to the borderline of palpability | causes inhibition of blood platelet aggregation | phospholipase-A2 -inhibiting | lipoxygenase-inhibiting effect
